Earlier results, collected in patent publication US12311052B2, “Mitochondrial performance enhancement nanoemulsion method” (Quicksilver Scientific, Inc., priority 2017, dated 2025).
Like-named read-outs stand apart in the source and are kept apart here.

Assays:
mice = conditions: PQQ deficient mice compared to PQQ supplemented mice
Hepa1-6 mouse cells = conditions: 10-30 μM PQQ for 24-48 hours
cells = conditions: inhibitors rotenone, 3-nitropropionic acid, antimycin A, sodium azide
[1] = consumed orally
[2] = oral administration; extensively metabolized to glucuronide conjugate by liver and intestine

O=C(O)c1cc(C(=O)O)c2c(n1)C(=O)C(=O)c1cc(C(=O)O)[nH]c1-2.[Na].[Na] [PQQ, Pyrroloquinoline quinone disodium salt]
reduction in the relative amount of mitochondria in the liver (mice): 20 to 30% | citrate synthase and cytochrome c oxidase activity, Mitotracker staining, mitochondrial DNA content, cellular oxygen respiration (Hepa1-6 mouse cells): increased citrate synthase and cytochrome c oxidase activity, Mitotracker staining, mitochondrial DNA content, and cellular oxygen respiration | protection of cells from mitochondrial inhibition (cells): protect cells from mitochondrial inhibition

COC1=C(OC)C(=O)C(C/C=C(\C)CC/C=C(\C)CC/C=C(\C)CC/C=C(\C)CC/C=C(\C)CC/C=C(\C)CC/C=C(\C)CC/C=C(\C)CC/C=C(\C)CCC=C(C)C)=C(C)C1=O [CoQ10, Coenzyme Q10]
bioavailability [1]: ~10%

Oc1ccc(/C=C/c2cc(O)cc(O)c2)cc1 [resveratrol, 3,5,4′-trihydroxy-trans-stilbene]
bioavailability [2]: about 0.5%
